Active and inactive are the calls of the source. No cut-off for these calls is given here.
Experiments:
[1] = molecular target: T1, Fibroblast growth factor receptor 1 (Homo sapiens, UniProt P11362); assay: Inhibition of FGFR1 (unknown origin) using Tyr 04 peptide substrate measured after 2 hrs by FRET assay
[2] = molecular target: T2, Fibroblast growth factor receptor 4 (Homo sapiens, UniProt P22455); assay: Inhibition of FGFR4 (unknown origin) using Tyr 04 peptide substrate measured after 2 hrs by FRET assay
T2 sequence (P22455 whole entry): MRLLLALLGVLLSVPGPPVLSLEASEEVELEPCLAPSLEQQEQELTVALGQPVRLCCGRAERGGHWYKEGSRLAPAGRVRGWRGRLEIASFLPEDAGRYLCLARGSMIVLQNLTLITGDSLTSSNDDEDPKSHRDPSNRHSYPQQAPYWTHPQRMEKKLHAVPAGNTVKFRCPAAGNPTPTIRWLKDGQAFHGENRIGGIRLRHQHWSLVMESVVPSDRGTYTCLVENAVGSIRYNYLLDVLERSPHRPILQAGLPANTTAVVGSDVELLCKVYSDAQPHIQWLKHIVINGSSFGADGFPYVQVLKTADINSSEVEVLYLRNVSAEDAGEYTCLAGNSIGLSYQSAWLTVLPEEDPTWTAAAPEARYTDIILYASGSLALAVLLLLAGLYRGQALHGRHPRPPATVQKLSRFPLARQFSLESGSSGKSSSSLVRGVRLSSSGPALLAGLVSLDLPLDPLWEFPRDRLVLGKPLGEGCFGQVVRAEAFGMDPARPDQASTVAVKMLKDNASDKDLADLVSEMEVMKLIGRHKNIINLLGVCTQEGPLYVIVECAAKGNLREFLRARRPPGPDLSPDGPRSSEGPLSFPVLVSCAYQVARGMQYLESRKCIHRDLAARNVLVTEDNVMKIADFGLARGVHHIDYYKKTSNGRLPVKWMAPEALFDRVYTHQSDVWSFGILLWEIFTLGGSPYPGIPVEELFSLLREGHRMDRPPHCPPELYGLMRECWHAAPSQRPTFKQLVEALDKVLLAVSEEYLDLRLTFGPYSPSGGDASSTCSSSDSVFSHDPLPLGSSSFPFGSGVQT

[3] = molecular target: Fibroblast growth factor receptor 2 (Homo sapiens, UniProt P21802); assay: Inhibition of FGFR2 (unknown origin) using Tyr 04 peptide substrate measured after 2 hrs by FRET assay
Sequence of Fibroblast growth factor receptor 2 (P21802 whole entry): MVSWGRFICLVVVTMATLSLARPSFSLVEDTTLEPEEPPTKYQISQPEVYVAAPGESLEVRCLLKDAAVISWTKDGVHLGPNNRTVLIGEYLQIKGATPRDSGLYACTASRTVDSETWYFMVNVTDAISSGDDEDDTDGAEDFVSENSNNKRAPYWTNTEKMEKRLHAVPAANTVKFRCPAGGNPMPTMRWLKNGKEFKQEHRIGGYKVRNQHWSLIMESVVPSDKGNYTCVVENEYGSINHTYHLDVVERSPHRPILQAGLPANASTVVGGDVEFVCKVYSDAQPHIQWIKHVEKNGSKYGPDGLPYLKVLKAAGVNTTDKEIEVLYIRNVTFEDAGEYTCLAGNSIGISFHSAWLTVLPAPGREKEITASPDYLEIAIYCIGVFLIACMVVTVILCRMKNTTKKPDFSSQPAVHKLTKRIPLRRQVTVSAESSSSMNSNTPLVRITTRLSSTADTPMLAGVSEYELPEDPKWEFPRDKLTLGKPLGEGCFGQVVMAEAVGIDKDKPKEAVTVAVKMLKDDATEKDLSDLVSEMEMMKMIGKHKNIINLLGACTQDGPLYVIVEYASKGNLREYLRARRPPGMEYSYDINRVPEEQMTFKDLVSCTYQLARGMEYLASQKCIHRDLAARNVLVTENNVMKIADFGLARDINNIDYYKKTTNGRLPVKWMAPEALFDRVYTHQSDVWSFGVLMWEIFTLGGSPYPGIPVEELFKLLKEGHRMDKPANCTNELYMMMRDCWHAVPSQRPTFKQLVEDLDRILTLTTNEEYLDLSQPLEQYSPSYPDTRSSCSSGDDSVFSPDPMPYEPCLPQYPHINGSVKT

[4] = molecular target: T3, Fibroblast growth factor receptor 3 (Homo sapiens, UniProt P22607); assay: Inhibition of FGFR3 (unknown origin) using Tyr 04 peptide substrate measured after 2 hrs by FRET assay
Target sequence in this assay (P22607 whole entry): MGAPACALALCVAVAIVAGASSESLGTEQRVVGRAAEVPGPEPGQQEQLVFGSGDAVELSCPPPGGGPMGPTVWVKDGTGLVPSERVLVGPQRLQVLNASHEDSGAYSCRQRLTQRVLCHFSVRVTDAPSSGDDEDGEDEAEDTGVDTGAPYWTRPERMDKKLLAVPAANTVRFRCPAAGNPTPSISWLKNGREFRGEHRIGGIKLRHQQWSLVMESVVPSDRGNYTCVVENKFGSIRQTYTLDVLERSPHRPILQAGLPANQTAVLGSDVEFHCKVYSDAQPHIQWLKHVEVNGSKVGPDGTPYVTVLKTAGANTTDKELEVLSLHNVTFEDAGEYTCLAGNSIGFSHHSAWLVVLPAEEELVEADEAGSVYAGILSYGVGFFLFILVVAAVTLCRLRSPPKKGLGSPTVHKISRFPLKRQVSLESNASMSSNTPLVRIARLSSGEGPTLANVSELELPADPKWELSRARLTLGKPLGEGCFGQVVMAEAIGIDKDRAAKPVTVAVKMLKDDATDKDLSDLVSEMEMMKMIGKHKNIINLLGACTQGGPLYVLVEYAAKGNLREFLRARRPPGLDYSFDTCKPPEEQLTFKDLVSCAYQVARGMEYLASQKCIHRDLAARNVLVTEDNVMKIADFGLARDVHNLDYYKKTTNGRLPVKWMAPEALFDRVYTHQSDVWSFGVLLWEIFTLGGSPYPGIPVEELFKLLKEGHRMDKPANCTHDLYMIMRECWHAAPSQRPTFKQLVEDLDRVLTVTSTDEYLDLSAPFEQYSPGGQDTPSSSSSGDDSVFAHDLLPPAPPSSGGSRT

[5] = tested on: Huh-7; assay: Cytotoxicity against human Huh-7 cells harboring FGF19/FGFR4 assessed as inhibition of cell growth
[6] = tested on: Hep 3B2; assay: Cytotoxicity against human Hep 3B2.1-7 cells harboring FGF19/FGFR4 assessed as inhibition of cell growth; details: Hep3B
[7] = tested on: MDA-MB-453; assay: Cytotoxicity against human MDA-MB-453 cells harboring FGF19/FGFR4 assessed as inhibition of cell growth
[8] = tested on: NCI-H1581; assay: Cytotoxicity against human NCI-H1581 cells harboring FGF19/FGFR4 assessed as inhibition of cell growth
[9] = molecular target: T1, Fibroblast growth factor receptor 1; assay: Inhibition of human FGFR1 expressed in bacterial expression system at 1000 nM by KINOMEscan assay relative to control
[10] = tested on: Fibroblast growth factor receptor 2 (Homo sapiens), P21802 [N549H]; assay: Inhibition of human FGFR2 N549H mutant expressed in bacterial expression system at 1000 nM by KINOMEscan assay relative to control
Sequence of Fibroblast growth factor receptor 2 (Homo sapiens), P21802 [N549H] (P21802 whole entry N549H): as the sequence (P21802 whole entry) above, with N549H counted along it

[11] = molecular target: T3, Fibroblast growth factor receptor 3; assay: Inhibition of human FGFR3 expressed in bacterial expression system at 1000 nM by KINOMEscan assay relative to control
Target sequence in this assay (P22607 23-806 limits assumed): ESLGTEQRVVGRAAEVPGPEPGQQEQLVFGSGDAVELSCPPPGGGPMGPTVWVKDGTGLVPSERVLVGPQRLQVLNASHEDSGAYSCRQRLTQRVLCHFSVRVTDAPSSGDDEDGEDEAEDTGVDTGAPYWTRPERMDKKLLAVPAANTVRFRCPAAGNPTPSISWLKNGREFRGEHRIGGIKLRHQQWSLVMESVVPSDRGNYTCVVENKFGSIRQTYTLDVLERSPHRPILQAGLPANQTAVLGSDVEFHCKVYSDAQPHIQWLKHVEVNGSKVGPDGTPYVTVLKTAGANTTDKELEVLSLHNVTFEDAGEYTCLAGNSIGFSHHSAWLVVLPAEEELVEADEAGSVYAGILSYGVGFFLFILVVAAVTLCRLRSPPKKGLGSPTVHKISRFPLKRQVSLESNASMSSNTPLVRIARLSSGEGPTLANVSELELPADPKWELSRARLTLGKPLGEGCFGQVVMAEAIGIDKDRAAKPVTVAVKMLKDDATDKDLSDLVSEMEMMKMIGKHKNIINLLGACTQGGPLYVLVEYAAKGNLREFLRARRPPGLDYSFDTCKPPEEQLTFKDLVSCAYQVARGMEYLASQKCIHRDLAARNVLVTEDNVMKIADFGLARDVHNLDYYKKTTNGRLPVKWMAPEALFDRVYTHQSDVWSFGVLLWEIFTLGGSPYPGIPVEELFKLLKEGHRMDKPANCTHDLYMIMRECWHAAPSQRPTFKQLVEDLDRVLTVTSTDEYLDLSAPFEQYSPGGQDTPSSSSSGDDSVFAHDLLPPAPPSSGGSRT

[12] = molecular target: Proto-oncogene tyrosine-protein kinase receptor Ret (Homo sapiens) (UniProt P07949); assay: Inhibition of human RET expressed in bacterial expression system at 1000 nM by KINOMEscan assay relative to control
Sequence of Proto-oncogene tyrosine-protein kinase receptor Ret (Homo sapiens) (P07949 whole entry): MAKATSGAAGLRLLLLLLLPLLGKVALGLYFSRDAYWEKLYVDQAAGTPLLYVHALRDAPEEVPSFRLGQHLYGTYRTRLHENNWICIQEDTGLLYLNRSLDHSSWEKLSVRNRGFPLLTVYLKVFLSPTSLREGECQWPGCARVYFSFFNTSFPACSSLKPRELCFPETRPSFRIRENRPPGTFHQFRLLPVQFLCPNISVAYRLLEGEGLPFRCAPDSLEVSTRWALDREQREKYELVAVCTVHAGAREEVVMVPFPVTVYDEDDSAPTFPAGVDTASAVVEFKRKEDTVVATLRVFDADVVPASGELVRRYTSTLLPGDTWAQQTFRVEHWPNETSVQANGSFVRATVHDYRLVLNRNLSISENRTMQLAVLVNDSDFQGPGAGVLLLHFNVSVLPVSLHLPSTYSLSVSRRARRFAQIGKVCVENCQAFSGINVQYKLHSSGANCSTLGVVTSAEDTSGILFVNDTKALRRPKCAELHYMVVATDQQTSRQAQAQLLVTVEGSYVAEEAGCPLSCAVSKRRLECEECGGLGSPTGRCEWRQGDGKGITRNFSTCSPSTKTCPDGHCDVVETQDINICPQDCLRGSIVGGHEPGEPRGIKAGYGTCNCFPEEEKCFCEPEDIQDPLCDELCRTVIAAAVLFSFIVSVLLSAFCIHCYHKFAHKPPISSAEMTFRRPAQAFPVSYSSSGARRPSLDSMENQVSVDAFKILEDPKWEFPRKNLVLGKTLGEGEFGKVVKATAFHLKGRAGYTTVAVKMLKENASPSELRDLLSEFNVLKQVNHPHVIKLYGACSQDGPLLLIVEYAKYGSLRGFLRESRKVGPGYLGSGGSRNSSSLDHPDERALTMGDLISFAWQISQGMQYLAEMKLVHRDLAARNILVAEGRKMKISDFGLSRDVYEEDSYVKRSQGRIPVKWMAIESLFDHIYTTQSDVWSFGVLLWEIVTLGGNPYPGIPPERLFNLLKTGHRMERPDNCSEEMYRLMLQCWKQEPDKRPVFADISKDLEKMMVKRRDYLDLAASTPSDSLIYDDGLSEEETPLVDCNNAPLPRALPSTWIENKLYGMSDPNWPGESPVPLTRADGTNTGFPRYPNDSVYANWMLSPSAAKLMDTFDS

[13] = molecular target: Receptor-type tyrosine-protein kinase FLT3 (Homo sapiens) (UniProt P36888); assay: Inhibition of human FLT3 expressed in bacterial expression system at 1000 nM by KINOMEscan assay relative to control
[14] = molecular target: Platelet-derived growth factor receptor alpha (Homo sapiens) (UniProt P16234); assay: Inhibition of human PDGFRA expressed in mammalian expression system at 1000 nM by KINOMEscan assay relative to control
[15] = molecular target: Platelet-derived growth factor receptor beta (Homo sapiens) (UniProt P09619); assay: Inhibition of human PDGFRB expressed in bacterial expression system at 1000 nM by KINOMEscan assay relative to control
[16] = molecular target: MAP kinase-activated protein kinase 2 (Homo sapiens) (UniProt P49137); assay: Inhibition of human MAPKAPK2 expressed in bacterial expression system at 1000 nM by KINOMEscan assay relative to control
[17] = molecular target: MAP kinase-activated protein kinase 3 (Homo sapiens) (UniProt Q16644); assay: Inhibition of human MAPKAPK3 expressed in bacterial expression system at 1000 nM by KINOMEscan assay relative to control
Sequence of MAP kinase-activated protein kinase 3 (Homo sapiens) (Q16644 whole entry, looked up): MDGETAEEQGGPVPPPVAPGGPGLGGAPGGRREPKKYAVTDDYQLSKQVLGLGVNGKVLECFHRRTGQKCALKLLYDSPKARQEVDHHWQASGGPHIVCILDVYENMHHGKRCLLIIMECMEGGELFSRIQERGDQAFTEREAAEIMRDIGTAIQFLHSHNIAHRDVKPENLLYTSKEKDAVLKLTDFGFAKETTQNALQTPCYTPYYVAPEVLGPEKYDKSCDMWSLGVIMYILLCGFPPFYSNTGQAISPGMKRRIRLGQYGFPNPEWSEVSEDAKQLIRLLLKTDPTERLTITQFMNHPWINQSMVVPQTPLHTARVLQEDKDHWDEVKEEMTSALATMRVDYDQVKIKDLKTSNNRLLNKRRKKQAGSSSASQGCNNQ

[18] = molecular target: Transient receptor potential cation channel subfamily M member 7 (Homo sapiens) (UniProt Q96QT4); assay: Inhibition of human CHAK1 at 1000 nM by KINOMEscan assay relative to control
[19] = molecular target: Phosphatidylinositol 4-kinase alpha (Homo sapiens) (UniProt P42356); assay: Inhibition of human PIK4 at 1000 nM by KINOMEscan assay relative to control
[20] = molecular target: T4, Dual specificity protein kinase TTK (Homo sapiens) (UniProt P33981); assay: Inhibition of human TTK at 1000 nM by KINOMEscan assay relative to control
T4 sequence (whole entry): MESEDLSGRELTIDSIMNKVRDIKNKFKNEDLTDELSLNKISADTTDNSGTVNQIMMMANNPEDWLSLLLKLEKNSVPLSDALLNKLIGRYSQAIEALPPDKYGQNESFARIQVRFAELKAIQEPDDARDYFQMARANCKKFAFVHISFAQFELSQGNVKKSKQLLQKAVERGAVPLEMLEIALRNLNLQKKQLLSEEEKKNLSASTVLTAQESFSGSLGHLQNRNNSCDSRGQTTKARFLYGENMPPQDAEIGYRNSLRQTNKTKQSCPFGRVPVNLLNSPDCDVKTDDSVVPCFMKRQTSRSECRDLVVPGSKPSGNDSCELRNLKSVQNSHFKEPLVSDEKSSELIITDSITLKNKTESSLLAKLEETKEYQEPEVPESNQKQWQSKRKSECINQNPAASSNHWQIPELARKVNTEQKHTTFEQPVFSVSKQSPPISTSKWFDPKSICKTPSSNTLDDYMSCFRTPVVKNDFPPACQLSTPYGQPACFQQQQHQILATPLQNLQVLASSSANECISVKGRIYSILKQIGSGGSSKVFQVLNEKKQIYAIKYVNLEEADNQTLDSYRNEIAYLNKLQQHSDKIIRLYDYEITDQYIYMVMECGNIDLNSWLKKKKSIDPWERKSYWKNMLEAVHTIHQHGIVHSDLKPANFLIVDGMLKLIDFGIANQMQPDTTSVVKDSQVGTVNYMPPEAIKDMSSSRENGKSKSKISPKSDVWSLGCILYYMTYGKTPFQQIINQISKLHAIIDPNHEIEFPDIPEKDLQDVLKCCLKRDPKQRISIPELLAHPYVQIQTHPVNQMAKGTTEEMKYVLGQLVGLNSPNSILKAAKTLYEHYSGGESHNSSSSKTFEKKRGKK

[21] = Half life in Sprague- Dawley rat at 5 mg/kg, iv incubation upto 24 hrs by LC-MS/MS analysis; type: ADME, organism-based; details: in vivo
[22] = Half life in Sprague- Dawley rat at 25 mg/kg, po incubation upto 24 hrs by LC-MS/MS analysis; type: ADME, organism-based; details: in vivo
[23] = Cmax in Sprague-Dawley rat at 5 mg/kg, iv incubation upto 24 hrs by LC-MS/MS analysis; type: ADME, organism-based; design: route intravenous, dose 5 mg/kg, time <=24; details: in vivo
[24] = Cmax in Sprague-Dawley rat at 25 mg/kg, po incubation upto 24 hrs by LC-MS/MS analysis; type: ADME, organism-based; design: route oral, dose 25 mg/kg, time <=24; details: in vivo
[25] = AUC(0 to t) in Sprague-Dawley rat at 5 mg/kg, iv incubation upto 24 hrs by LC-MS/MS analysis; type: ADME, organism-based; design: route intravenous, dose 5 mg/kg, time <=24; details: in vivo
[26] = AUC(0 to t) inSprague- Dawley rat at 25 mg/kg, po incubation upto 24 hrs by LC-MS/MS analysis; type: ADME, organism-based; design: route oral, dose 25 mg/kg, time <=24; details: Sprague-Dawley, in vivo
[27] = Clearance in Sprague- Dawley rat at 5 mg/kg, iv incubation upto 24 hrs by LC-MS/MS analysis; type: ADME, organism-based; details: in vivo
[28] = Oral bioavailability in Sprague- Dawley rat at 25 mg/kg incubation upto 24 hrs by LC-MS/MS analysis; type: ADME, organism-based; details: in vivo
[29] = tested on: BaF3; assay: Inhibition of FGFR4 expressed in mouse BaF3-ETV6-FGFR4 cells assessed as inhibition of PLCgamma1 phosphorylation by Western blot analysis; type: cell-based; details: dose 3.7-100 nM
[30] = tested on: BaF3; assay: Inhibition of FGFR4 expressed in mouse BaF3-ETV6-FGFR4 cells assessed as inhibition of FRS2alpha phosphorylation by Western blot analysis; type: cell-based; details: dose 3.7-100 nM
[31] = molecular target: T2, Fibroblast growth factor receptor 4; assay: Binding affinity to FGFR4 (unknown origin) assessed as dissociation constant by competition binding assay
[32] = tested on: Hep 3B2; assay: Inhibition of colony formation in human Hep 3B2.1-7 cells incubated for 10 days by crystal violet staining based assay; type: functional, cell-based; details: time 10.0 day
[33] = tested on: NCI-H1581; assay: Inhibition of colony formation in human NCI-H1581 cells incubated for 10 days by crystal violet staining based assay; type: functional, cell-based; details: time 10.0 day
[34] = tested on: Hep 3B2; assay: Antiproliferative activity in human Hep 3B2.1-7 cells assessed as reduction of cell number measured after 72 hrs by CCK8 assay; type: functional, cell-based
[35] = tested on: NCI-H1581; assay: Antiproliferative activity in human NCI-H1581 cells assessed as reduction of cell number measured after 72 hrs by CCK8 assay; type: functional, cell-based
[36] = tested on: Hep 3B2; assay: Antitumor activity against human Hep 3B2.1-7 cells xenografted in mouse assessed as tumor growth inhibitions at 30 mg/kg, po BID administered for 12 days; type: functional; details: Hep3B, 288 h, time 12 day, read-out: TGI
[37] = Toxicity in mouse assessed as mortality at 30 mg/kg, po BID administered for 12 days (reference value: < 5 %); type: organism-based; details: in vivo, 288 h, time 12 day
[38] = Toxicity in mouse assessed as induction of weight loss at 30 mg/kg, po BID administered for 12 days (reference value: < 5 %); type: organism-based; details: in vivo, 288 h, time 12 day
[39] = tested on: BaF3; assay: Inhibition of FGFR4 expressed in mouse BaF3-ETV6-FGFR4 cells assessed as inhibition of ERK phosphorylation by Western blot analysis; type: cell-based; details: dose 3.7-100 nM

## CC(C)Oc1cc(NC(=O)N2CCCc3cc(CN4CCN(C)CC4=O)c(C=O)nc32)ncc1C#Cc1cccnc1
[1]
  IC50: > 10000 nM
[2]
  IC50: 5.4 nM
[3]
  IC50: > 10000 nM
[4]
  IC50: > 10000 nM
[5]
  IC50: 2.4 nM
[6]
  IC50: 104 nM
[7]
  IC50: 140 nM
[8]
  IC50: > 3000 nM
[9]
  inhibition: -5%
[10]
  inhibition: 1%
[11]
  inhibition: 10%
[12]
  inhibition: -2%
[13]
  inhibition: 10%
[14]
  inhibition: 5%
[15]
  inhibition: 5%
[16]
  inhibition: -3%
[17]
  inhibition: 3%
[18]
  inhibition: 8%
[19]
  inhibition: 6%
[20]
  inhibition: 10%
[21]
  half-life: 0.89 h
[22]
  half-life: 3.06 h
[23]
  Cmax: 11100 ng/mL
[24]
  Cmax: 8560 ng/mL
[25]
  AUC(0-t) at 24 h: 15300 ng·h/mL
[26]
  AUC(0-t) at 24 h: 39000 ng·h/mL
[27]
  clearance: 6.15 mL/min/kg
[28]
  bioavailability: 51%
[29]
  inhibition: Dose-Dependent Effect
[30]
  inhibition: Dose-Dependent Effect
[31]
  Kd: 6.2 nM
[32]
  Activity: Active
[33]
  Activity: Active
[34]
  Activity: Active
[35]
  Activity: Active
[36]
  inhibition in vivo at 30 mg/kg: 95.2%
[37]
  Activity: Non-Toxic
[38]
  Activity: Non-Toxic
[39]
  inhibition: Dose-Dependent Effect

— ChEMBL document CHEMBL5046271, “Design, Synthesis, and Biological Evaluation of 2-Formyl Tetrahydronaphthyridine Urea Derivatives as New Selective Covalently Reversible FGFR4 Inhibitors” (J Med Chem, 2022)
